The record followed here is paper PMC8395690, “Entropy–Entropy Compensation between the Protein, Ligand, and Solvent Degrees of Freedom Fine-Tunes Affinity in Ligand Binding to Galectin-3C” (JACS Au, 2021).

For orientation: Kd means the equilibrium constant for the complex coming apart.

This assay deals with T1, galectin-3C (carbohydrate recognition domain of galectin-3) (Homo sapiens, UniProt P17931).
T1 construct: gene LGALS3; carbohydrate recognition domain of galectin-3 (residues 113–250)
Kind of assay: ITC; X-ray crystal structure; NMR titration. Type of assay: binding. (Isothermal titration calorimetry measures the heat released or taken up as one component is titrated into another.)

Each structure is given as a SMILES string. Where two headings read alike, the source gives them in different places.

T1 sequence (P17931 113-250): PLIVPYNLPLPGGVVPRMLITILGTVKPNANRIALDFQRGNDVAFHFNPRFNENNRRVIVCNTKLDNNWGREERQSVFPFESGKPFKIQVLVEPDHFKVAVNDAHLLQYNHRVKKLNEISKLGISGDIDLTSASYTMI

On to `OC[C@H]1O[C@@H](S[C@@H]2O[C@H](CO)[C@@H](O)[C@H](O)[C@H]2O)[C@H](O)[C@@H](n2cc(-c3cccc(F)c3)nn2)[C@H]1O` [M], for which the Kd (read-out: Kd ITC (10^-6 M) ^a) stood at 2000 nM.

For `OC[C@H]1O[C@@H](S[C@@H]2O[C@H](CO)[C@@H](O)[C@H](O)[C@H]2O)[C@H](O)[C@@H](n2cc(-c3ccccc3F)nn2)[C@H]1O` [O], the Kd amounted to 7210 nM.

In the case of `OC[C@H]1O[C@@H](S[C@@H]2O[C@H](CO)[C@@H](O)[C@H](O)[C@H]2O)[C@H](O)[C@@H](n2cc(-c3ccc(F)cc3)nn2)[C@H]1O` [P], the dissociation constant Kd (read-out: Kd ITC (10^-6 M) ^a) was 2460 nM.
